Results reported in patent publication US20220233661A1, “METHOD OF DETERMINING ELIGIBILITY OF CANCER PATIENT FOR PEPTIDE VACCINE THERAPY” (priority 2019, published 2022).

Columns and labels:
[1] = system: anti-peptide IgG in plasma; experiment: Test Example 4: peptide-specific IgG titer pre and post vaccination, bead-based multiplexed Luminex assay; format: in vivo, human
How it was run: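 Plasma taken before vaccination and at the end of the first and second cycles; incubated with peptide-coupled beads 2 hours at 25° C., then biotinylated anti-human IgG (gamma chain-specific) and streptavidin-PE. Bead FIU read by Luminex; positivity cutoff 10 FIU in 100-fold diluted samples.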

cancer patients = experiment: Test Example 4: correlation between vaccination with individual peptides (or peptide sets) and OS, Cox proportional hazards regression; format: in vivo, human; details: for HR: Cox proportional hazards regression, OS
How it was run: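 Univariate and multivariate Cox proportional hazards regression of each of 31 vaccine peptides against OS (enrollment to death or last contact), giving HR with 95% CI; also run separately in 2,085 advanced (stage IV+recurrence) and 503 stage I-III patients. Two-sided p<0.05 considered significant.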

[2] = Table 20, patients showing both <64% neutrophil and ≥26% lymphocyte
[3] = Table 20, patients showing both <64% neutrophil and ≥26% lymphocyte, cut off 10 FIU

In the case of “DLLSHAFFA (listed as Homo sapiens) [MAP-432]”, the “Post vaccination IgG Median (FIU)” value [1, 2] is reported as 947 FIU, the “Pre-vaccination IgG Median (FIU)” value [1, 2] is reported as 52 FIU and the “Pre-vaccination IgG Negative (number of patients)” value [1, 3] is reported as 549. For the same sequence, the “Pre-vaccination IgG Positive (number of patients)” value [1, 3] was 517, the “Post vaccination IgG: number of (positive) patients among vaccinated” value ([1]; Table 20, patients showing both <64% neutrophil and ≥26% lymphocyte, positive IgG response) was 133(45) and the “Pre-vaccination IgG Negative patients” value ([1]; number of 2,588 patients below 10 FIU) was 1,280. For the same sequence, the “Pre-vaccination IgG Positive patients” value ([1]; number of 2,588 patients with ≥10 FIU) was 1,308, the “Post vaccination IgG: (positive) patients” value ([1]; number of vaccinated patients with positive IgG response) was 375(97) and the “Pre-vaccination IgG Median (FIU)” value ([1]; patients showing detectable levels) was 51 FIU. For the same sequence, the “Post vaccination IgG Median (FIU)” value ([1]; patients showing positive responses) was 757 FIU, the “Correlation between immune responses and OS: Negative (mOS)” value ([1]; patients with negative post-vaccination IgG response to the peptide) was 12.0 months and the “Correlation between immune responses and OS: Positive (mOS)” value ([1]; patients with positive post-vaccination IgG response to the peptide) was 23.8 months. For the same sequence, the HR (cancer patients; Table 18, all 2,588 cases, vaccinated vs non-vaccinated) was 1.0, the “Vaccinate cases (mOS)” value (cancer patients; Table 18, all 2,588 cases, median OS of patients under PPV containing the peptide) was 375(11.1) M and the “Non-vaccinate cases (mOS)” value (cancer patients; Table 18, all 2,588 cases, median OS of patients under PPV not containing the peptide) was 1,087(11.9) M. For the same sequence, the HR (cancer patients; Table 19, 2,085 advanced cancer patients (stage IV+recurrence)) was 1.1, the “Vaccinate cases (mOS)” value (cancer patients; Table 19, 2,085 advanced cancer patients (stage IV+recurrence), PPV containing the peptide) was 296(9.7) M and the “Non-vaccinate cases (mOS)” value (cancer patients; Table 19, 2,085 advanced cancer patients (stage IV+recurrence), PPV not containing the peptide) was 892(10.8) M. It also gave a Correlation between immune responses and OS: Negative (mOS) (cancer patients; Table 20, vaccinated patients with negative IgG response, <64% neutrophil and ≥26% lymphocyte) of 15.5 months, a Correlation between immune responses and OS: Positive (mOS) (cancer patients; Table 20, vaccinated patients with positive IgG response, <64% neutrophil and ≥26% lymphocyte) of 29.4 months and an HR (cancer patients; Table 21, patients showing both <64% neutrophil and ≥26% lymphocyte) of 1.1. For the same sequence, the “Vaccinate cases (mOS)” value (cancer patients; Table 21, patients showing both <64% neutrophil and ≥26% lymphocyte, PPV containing the peptide) was 133(16.1) M and the “Non-vaccinate cases (mOS)” value (cancer patients; Table 21, patients showing both <64% neutrophil and ≥26% lymphocyte, PPV not containing the peptide) was 460(18.5) M.
